This series in a line: Saturation solubility of color developer free base in solvents and solvent/water mixtures (HPLC and NMR). Conditions: for Solubility in the solvents evaluated (in words): all solvents evaluated, room temperature; for CD Free Base Conc. (saturation solubility): ambient temperature, 3% DEHA added.

Description: Representative solvents were selected from each of the different classes of solvents: alcohols, glycols and glycol ethers. A small quantity of a representative preservative, 3% of N,N-dietheylhydroxylamine (DEHA), was added.

`CCN(CC)c1ccc(N)c(C)c1` [CD-2 free base, 4-amino-3-methyl-N,N-diethylaniline]: the “Solubility in the solvents evaluated (in words)” value was “fully miscible”.

On to `CCN(CCNS(C)(=O)=O)c1ccc(N)c(C)c1` [CD-3 free base, 4-amino-3-methyl-N-ethyl-N-(2-methanesulfonamidoethyl)aniline], for which the “Solubility in the solvents evaluated (in words)” value is on record as “lesser solubility”. Also, the “CD Free Base Conc. (saturation solubility)” value (2-Propanol/Water 10:90 (weight:weight)) stood at 0.8 weight percent. Besides, under “2-Propanol/Water 50:50 (weight:weight)”, the “CD Free Base Conc. (saturation solubility)” value is listed as 9.2 weight percent. For the same compound, the “CD Free Base Conc. (saturation solubility)” value (2-Propanol/Water 90:10 (weight:weight)) was found to be 7.8 weight percent. Moreover, where the note is “2-propanol”, the “Solubility in 2-propanol (in words)” value is “low solubility”. In addition, where the note is “Ethanol/Water 10:90 (weight:weight)”, the “CD Free Base Conc. (saturation solubility)” value is listed as 0.6 weight percent. The “CD Free Base Conc. (saturation solubility)” value (Ethanol/Water 50:50 (weight:weight)) came to 9.0 weight percent. In addition, where the note is “Ethanol/Water 90:10 (weight:weight)”, the “CD Free Base Conc. (saturation solubility)” value is 9.7 weight percent. Besides, the “CD Free Base Conc. (saturation solubility)” value (Methanol/Water 10:90 (weight:weight)) amounted to 0.7 weight percent. Also, the “CD Free Base Conc. (saturation solubility)” value (Methanol/Water 50:50 (weight:weight)) stood at 6.8 weight percent. Moreover, the “CD Free Base Conc. (saturation solubility)” value (Methanol/Water 90:10 (weight:weight)) was determined as 18.9 weight percent. Also, under “solvent 2-Isopropoxyethanol”, the “CD Free Base Conc. (saturation solubility)” value was found to be 8.6 weight percent. Moreover, the “CD Free Base Conc. (saturation solubility)” value (solvent 2-Methyl-1,3-Propanediol) is reported as 3.3 weight percent. Further, the “CD Free Base Conc. (saturation solubility)” value (solvent 2-Propanol) stood at 1.8 weight percent. Moreover, the “CD Free Base Conc. (saturation solubility)” value (solvent 3-Methoxy-1-Butanol) was 9.3 weight percent. Besides, the “CD Free Base Conc. (saturation solubility)” value (solvent Diethylene Glycol) was determined as 15.2 weight percent. Also, the “CD Free Base Conc. (saturation solubility)” value (solvent Ethanol) amounted to 5.4 weight percent. Besides, the “CD Free Base Conc. (saturation solubility)” value (solvent Methanol) was determined as 23.6 weight percent. In addition, the “CD Free Base Conc. (saturation solubility)” value (solvent PEG-200) is recorded as 16.9 weight percent. For the same compound, the “CD Free Base Conc. (saturation solubility)” value (solvent PEG-300) came to 16.7 weight percent.

For the origin of these results see patent publication US20050037294A1, “Stabilized p-phenylenediamine-type photographic color developers in free base form” (priority 2000, published 2005).
